Legend:
[1] = system: S. aureus DSM 20231; assay: fitness (endpoint OD595 vs no drug) (fraction); higher = more growth
How it was run: (§1)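 Volumes were 30 µl per well, or 55 µl for S. pneumoniae, in 384-well plates inoculated at OD595 0.01. Media were TSB, LB Lennox or CY at 37 °C, and OD595 was read every 30 min for 14 h with first-reading background subtraction. Fitness is the ratio of optical density at stationary-phase entry to the robust mean of no-drug controls. That ratio is capped at 1.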

[2] = system: S. aureus Newman; assay: as above
How it was run: as §1

[3] = system: S. aureus DSM 20231; assay: Bliss interaction score (quartile over a dose matrix) (fitness difference); higher = more antagonism (negative = synergy)
How it was run: (§2)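 The Bliss score is observed minus expected fitness, where expected fitness is the product of the single-drug fitness values inferred from the combination data. Fitness is the OD595 at the onset of stationary phase over the plate's robust no-drug mean, capped at 1. Scores are summarised by quartiles over technical, biological and donor/recipient replicates.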

[4] = system: S. aureus Newman; assay: as above
How it was run: as §2

[5] = system: B. subtilis 168; assay: as above
How it was run: as §2

[6] = system: S. pneumoniae D39V; assay: as above
How it was run: as §2

[7] = system: B. subtilis 168; assay: fitness (endpoint OD595 vs no drug) (fraction); higher = more growth; conditions: one replicate
How it was run: as §1

[8] = system: S. pneumoniae D39V; assay: as above
How it was run: as §1
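For Bliss interaction score (quartile over a dose matrix) in this document: first quartile when negative (synergy) and third quartile when positive (antagonism).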

CN[C@@H]1[C@H](O)[C@H](NC)[C@H]2O[C@@]3(O)C(=O)C[C@@H](C)O[C@H]3O[C@@H]2[C@H]1O [Spectinomycin] + CCCCCCCCCC(=O)N[C@@H]1[C@H]([C@@H]([C@H](O[C@H]1OC2=C3C=C4C=C2OC5=C(C=C(C=C5)[C@H]([C@H]6C(=O)N[C@@H](C7=C(C(=CC(=C7)O)OC8[C@H]([C@H]([C@@H]([C@H](O8)CO)O)O)O)C9=C(C=CC(=C9)[C@H](C(=O)N6)NC(=O)[C@@H]4NC(=O)[C@@H]1C2=CC(=CC(=C2)OC2=C(C=CC(=C2)[C@H](C(=O)N[C@H](CC2=CC(=C(O3)C=C2)Cl)C(=O)N1)N)O)O)O)C(=O)O)O[C@H]1[C@@H]([C@H]([C@@H]([C@H](O1)CO)O)O)NC(=O)C)Cl)CO)O)O [Teicoplanin]
fitness, main component drawn
Conditions	first compound 4 µg/mL	first compound 8 µg/mL	first compound 16 µg/mL
[1], partner 0.1562 µg/mL	0.938	≥ 1	0.889
[1], partner 0.3125 µg/mL	0.962	0.969	0.919
[1], partner 0.625 µg/mL	≥ 1	≥ 1	0.985
[2], partner 0.1562 µg/mL	≥ 1	≥ 1	0.993
[2], partner 0.3125 µg/mL	≥ 1	0.998	0.973
[2], partner 0.625 µg/mL	0.817	0.705	0.831

fitness, one replicate, main component drawn
Conditions	partner 0.1562 µg/mL	partner 0.3125 µg/mL	partner 0.62 µg/mL	partner 0.625 µg/mL	partner 1.24 µg/mL	partner 2.48 µg/mL
[1], first compound 32 µg/mL	0.788	0.834	–	0.992	–	–
[1], first compound 64 µg/mL	0.0706	0.0748	–	0.0694	–	–
[2], first compound 4 µg/mL	–	–	0.792	–	0.743	0.411
[2], first compound 8 µg/mL	–	–	0.83	–	0.68	0.505
[2], first compound 16 µg/mL	–	–	0.854	–	0.645	0.428
[2], first compound 32 µg/mL	0.639	0.694	–	0.666	–	–
[2], first compound 64 µg/mL	0.0786	0.071	–	0.0311	–	–

main component drawn
Conditions	Bliss interaction score
[3]	0.0832
[4]	0.0966
[5]	0.138
[6]	-0.0746

CN[C@@H]1[C@H](O)[C@H](NC)[C@H]2O[C@@]3(O)C(=O)C[C@@H](C)O[C@H]3O[C@@H]2[C@H]1O [Spectinomycin] + CN(N=O)C(=O)N[C@@H](C=O)[C@@H](O)[C@H](O)[C@H](O)CO [Streptozotocin]
fitness
Conditions	partner 0.15 µg/mL	partner 0.3 µg/mL	partner 0.6 µg/mL	partner 1.2 µg/mL	partner 2.4 µg/mL	partner 4.8 µg/mL
[1], first compound 4 µg/mL	0.831	0.761	0.757	–	–	–
[1], first compound 8 µg/mL	0.875	0.798	0.754	–	–	–
[1], first compound 16 µg/mL	0.769	0.781	0.722	–	–	–
[2], first compound 4 µg/mL	0.818	0.665	0.51	–	–	–
[2], first compound 8 µg/mL	0.812	0.631	0.478	–	–	–
[2], first compound 16 µg/mL	0.813	0.614	0.427	–	–	–
[7], first compound 2 µg/mL	0.961	0.958	0.991	–	–	–
[7], first compound 4 µg/mL	≥ 1	≥ 1	≥ 1	–	–	–
[7], first compound 8 µg/mL	0.977	0.832	0.926	–	–	–
[8], first compound 4 µg/mL	–	–	–	0.947	0.928	0.913
[8], first compound 8 µg/mL	–	–	–	0.847	0.832	0.81

fitness, one replicate
Conditions	partner 0.15 µg/mL	partner 0.3 µg/mL	partner 0.6 µg/mL	partner 1.2 µg/mL	partner 2.4 µg/mL	partner 4.8 µg/mL
[1], first compound 32 µg/mL	0.674	0.696	0.686	–	–	–
[1], first compound 64 µg/mL	0.0638	0.0605	0.0885	–	–	–
[2], first compound 32 µg/mL	0.519	0.423	0.0868	–	–	–
[2], first compound 64 µg/mL	0.0732	0.067	0.0303	–	–	–
[8], first compound 16 µg/mL	–	–	–	0.764	0.841	0.686

Conditions	Bliss interaction score
[3]	0.0831
[4]	-0.046
[5]	-0.0285
[6]	-0.0505

CN[C@@H]1[C@H](O)[C@H](NC)[C@H]2O[C@@]3(O)C(=O)C[C@@H](C)O[C@H]3O[C@@H]2[C@H]1O [Spectinomycin] + CN[C@H](CC(C)C)C(=O)N[C@H]1C(=O)N[C@@H](CC(N)=O)C(=O)N[C@H]2C(=O)N[C@H]3C(=O)N[C@H](C(=O)N[C@H](C(=O)O)c4cc(O)cc(O)c4-c4cc3ccc4O)[C@H](O)c3ccc(c(Cl)c3)Oc3cc2cc(c3O[C@@H]2O[C@H](CO)[C@@H](O)[C@H](O)[C@H]2O[C@H]2C[C@](C)(N)[C@H](O)[C@H](C)O2)Oc2ccc(cc2Cl)[C@H]1O [Vancomycin]
fitness
Conditions	first compound 4 µg/mL	first compound 8 µg/mL	first compound 16 µg/mL
[1], partner 0.1875 µg/mL	0.906	0.938	0.85
[1], partner 0.375 µg/mL	0.898	0.893	0.774
[1], partner 0.75 µg/mL	≥ 1	0.985	0.908
[2], partner 0.1875 µg/mL	0.945	0.971	0.906
[2], partner 0.375 µg/mL	0.916	0.979	0.921
[2], partner 0.75 µg/mL	0.928	0.946	0.892
[8], partner 0.03125 µg/mL	0.979	0.933	0.835
[8], partner 0.0625 µg/mL	0.902	0.918	0.804
[8], partner 0.125 µg/mL	–	0.878	–

fitness, one replicate
Conditions	partner 0.1875 µg/mL	partner 0.25 µg/mL	partner 0.375 µg/mL	partner 0.5 µg/mL	partner 0.75 µg/mL
[1], first compound 32 µg/mL	0.741	–	0.74	–	0.737
[1], first compound 64 µg/mL	0.0522	–	0.0729	–	0.0868
[2], first compound 32 µg/mL	0.636	–	0.623	–	0.613
[2], first compound 64 µg/mL	0.119	–	0.071	–	0.0594
[8], first compound 4 µg/mL	–	0.437	–	0.0734	–
[8], first compound 8 µg/mL	–	0.293	–	0.0189	–

Conditions	Bliss interaction score
[3]	-0.059
[4]	0.0699
[5]	0.0821
[6]	-0.0797

CN[C@@H]1[C@H](O)[C@H](NC)[C@H]2O[C@@]3(O)C(=O)C[C@@H](C)O[C@H]3O[C@@H]2[C@H]1O [Spectinomycin] + Cn1nnc(-c2ccc(-c3ccc(N4C[C@H](CO)OC4=O)cc3F)cn2)n1 [Tedizolid]
fitness
Conditions	first compound 4 µg/mL	first compound 8 µg/mL	first compound 16 µg/mL
[1], partner 0.0625 µg/mL	0.964	0.916	0.744
[1], partner 0.125 µg/mL	0.657	0.678	0.641
[1], partner 0.25 µg/mL	0.257	0.225	0.199
[2], partner 0.0625 µg/mL	0.922	0.939	–
[8], partner 0.03125 µg/mL	0.87	0.914	0.78
[8], partner 0.0625 µg/mL	0.888	0.955	0.807
[8], partner 0.125 µg/mL	0.815	0.807	0.729

fitness, one replicate
Conditions	partner 0.0625 µg/mL	partner 0.125 µg/mL	partner 0.25 µg/mL	partner 0.5 µg/mL
[1], first compound 32 µg/mL	0.406	0.202	0.0234	–
[1], first compound 64 µg/mL	0.0239	0.0268	0.0093	–
[2], first compound 32 µg/mL	0.101	0.0307	0.0315	–
[2], first compound 64 µg/mL	0.0254	0.023	0.0159	–
[8], first compound 4 µg/mL	–	–	0.73	0.362
[8], first compound 8 µg/mL	–	–	0.724	0.416

Conditions	Bliss interaction score
[3]	0.0654
[4]	-0.111
[5]	-0.0466
[6]	-0.0885
